Laboratory results as given in patent US7960415B2, “Caspase inhibitors and uses thereof” (Vertex Pharmaceutical Incoporated, priority 2003, dated 2011).

Key:
[1] = test system: IL-1β secretion from human whole blood; test: Inhibition of IL-1β secretion from whole blood; assay type: cell-based; conditions: human whole blood diluted 1:2, LPS 5 ng/ml, 18 hours, ELISA
Procedure: Human blood is freshly drawn from healthy donors and diluted 1:2 in PBS. To 500 μl of diluted blood […] of prediluted test compound in RPMI medium and […] LPS (5 ng/ml final concentration on the plate) are added (LPS, Serotype 0111:B4, Sigma L3012). After stimulation for 18 hours supernatants are collected and assayed for IL-1β levels using the appropriate ELISA kit (R&D systems).

Jurkat E6.1 cells = test: Anti-Fas induced apoptosis assay; assay type: cell-based; conditions: Homo sapiens, anti-Fas antibody CH-11 10 ng/ml, 16-18 hrs, DNA fragmentation
Text: Cellular apoptosis may be induced by the binding of Fas ligand (FasL) to its receptor, CD95 (Fas). CD95 is one of a family of related receptors, known as death receptors, which can trigger apoptosis in cells via activation of the caspase enzyme cascade. The process is initiated by the binding of the adapter molecule FADD/MORT-1 to the cytoplasmic domain of the CD-95 receptor-ligand complex. Caspase-8 then binds FADD and becomes activated, initiating a cascade of events that involve the activation of downstream caspases and subsequent cellular apoptosis. Apoptosis can also be induced in cells expressing CD95 e.g., the Jurkat E6.1 T cell lymphoma cell line, using an antibody, rather than FasL, to crosslink the cell surface CD95. Anti-Fas-induced apoptosis is also triggered via the activation of caspase-8. This provides the basis of a cell based assay to screen compounds for inhibition of the caspase-8-mediated apoptotic pathway.
Jurkat E6.1 cells are cultured in complete medium consisting of RPMI-1640 (Sigma No)+10% foetal calf serum (Gibco BRL No. 10099-141)+2 mM L-glutamine (Sigma No. G-7513). The cells are harvested in log phase of growth. 100 ml of cells at 5-8×10^5 cells/ml are transferred to sterile 50 ml Falcon centrifuge tubes and centrifuged for 5 minutes at 100×g at room temperature. The supernatant is removed and the combined cell pellets resuspended in 25 ml of complete medium. The cells are counted and the density adjusted to 2×10^6 cells/ml with complete medium.
The test compound is dissolved in dimethyl sulfoxide (DMSO)(Sigma No. D-2650) to give a 100 mM stock solution. This is diluted to 400 μM in complete medium, then serially diluted in a 96-well plate prior to addition to the cell assay plate.
100 μl of the cell suspension ([…]) is added to each well of a sterile 96-well round-bottomed cluster plate (Costar No. 3790). 50 μl of compound solution at the appropriate dilution and 50 μl of anti-Fas antibody, clone CH-11 (Upstate, Cat No. 1 544 675) at a final concentration of 10 ng/ml, are added to the wells. Control wells are set up minus antibody and minus compound but with a serial dilution of DMSO as vehicle control. The plates are incubated for 16-18 hrs at 37° C. in 5% CO2 and 95% humidity.
Apoptosis of the cells is measured by the quantitation of DNA fragmentation using a ‘Cell Death Detection Assay’ from Roche diagnostics, No. 1544 675. After incubation for 16-18 hrs the assay plates are centrifuged at 100×g at room temperature for 5 minutes. 150 μl of the supernatant are removed and replaced by 150 μl of fresh complete medium. The cells are then harvested and 200 μl of the lysis buffer supplied in the assay kit are added to each well. The cells are triturated to ensure complete lysis and incubated for 30 minutes at 4° C. The plates are then centrifuged at 1900×g for 10 minutes and the supernatants diluted 1:20 in the incubation buffer provided. 100 μl of this solution is then assayed according to the manufacturer's instructions supplied with the kit. OD405 nm is measured 20 minutes after addition of the final substrate in a SPECTRAmax Plus plate reader (Molecular Devices). OD405 nm is plotted versus compound concentration and the IC50 values for the compounds are calculated using the curve-fitting program SOFTmax Pro (Molecular Devices) using the four parameter fit option.

rat cortical neurons = test: Hypoxia-induced apoptosis of rat cortical neurons; assay type: cell-based, Wistar rat; conditions: Cortical neurone, 95% N2/5% CO2, Cell Death Detection ELISA (DNA fragmentation)
Procedure: Cortical neurons are dissociated from Wistar rat embryos (E17) by a modification of the procedure of Rogers et al. 1997, Brain Res. Bulletin, 44:131. Briefly, cerebral cortices are isolated aseptically from 15-20 Wistar rat embryos. A cell suspension is prepared by mincing the cerebral cortices and digesting them with papain. Cells are washed with ovomucoid enzyme inhibitor and DNaseI and plated onto Poly-D lysine coated plates in high glucose DMEM containing 10% heat-inactivated fetal calf serum, L-glutamine, penicillin and streptomycin. The yield of neurons is […] per embryo and they are 80-90% viable as assessed by Trypan blue exclusion.
The neurons are cultured in complete medium at 37° C. in a normal atmosphere for 48 hours prior to the hypoxia experiments. For hypoxia, the normal cell medium is replaced by oxygen-depleted serum-free medium. Cells are incubated in an atmosphere of 95% N2/5% CO2 for various lengths of time. Compounds are dissolved in DMSO at 100 mM then diluted in medium and added to the culture from time=0. The level of apoptosis is measured using a Cell Death Detection ELISA kit (Roche) which detects DNA fragmentation. Plates are read at 405 nm. Controls included cells cultured in aerobic conditions in serum-containing medium (+serum) and cells cultured in aerobic conditions in serum-deprived medium (−serum).

IC50 [1] | IC50 (Jurkat E6.1 cells) | SMILES | IC50 (rat cortical neurons)
< 500 nM | < 500 nM | CCC(=O)Nc1cccn([C@@H](CC)C(=O)NC(CC(=O)O)C(=O)CF)c1=O (stereo partly drawn) [Compound 29, (S)-5-Fluoro-4-oxo-3-[2-(2-oxo-3-propionylamino-2H-pyridin-1-yl)-butyrylamino]-pentanoic acid] | 1000 to 10000 nM
< 500 nM | < 500 nM | CCC(=O)Nc1cccn([C@@H](CC)C(=O)N[C@@H](CC(=O)O)C(=O)COc2c(F)c(F)cc(F)c2F)c1=O [Compound 2, (S,S)-4-Oxo-3-[2-(2-oxo-3-propionylamino-2H-pyridin-1-yl)-butyrylamino]-5-(2,3,5,6-tetrafluoro-phenoxy)-pentanoic acid] | < 1000 nM
< 500 nM | < 500 nM | CC[C@@H](C(=O)N[C@@H](CC(=O)O)C(=O)COc1c(F)c(F)cc(F)c1F)n1cccc(NC(=O)OC)c1=O [Compound 17, (S,S)-3-[2-(3-Methoxycarbonylamino-2-oxo-2H-pyridin-1-yl)-butyrylamino]-4-oxo-5-(2,3,5,6-tetrafluoro-phenoxy)-pentanoic acid] | < 1000 nM
500 to 5000 nM | < 500 nM | CC[C@@H](C(=O)N[C@@H](CC(=O)O)C(=O)COc1c(F)c(F)cc(F)c1F)n1cccc(NC(=O)C2CC2)c1=O [Compound 4, (S,S)-3-{2-[3-(Cyclopropanecarbonyl-amino)-2-oxo-2H-pyridin-1-yl]-butyrylamino}-4-oxo-5-(2,3,5,6-tetrafluoro-phenoxy)-pentanoic acid] | 1000 to 10000 nM
500 to 5000 nM | < 500 nM | CC[C@@H](C(=O)N[C@@H](CC(=O)O)C(=O)COc1c(F)c(F)cc(F)c1F)n1cc(C(F)(F)F)cc(NC(C)=O)c1=O [Compound 13, (S,S)-3-[2-(3-Acetylamino-2-oxo-5-trifluoromethyl-2H-pyridin-1-yl)-butyrylamino]-4-oxo-5-(2,3,5,6-tetrafluoro-phenoxy)-pentanoic acid] | < 1000 nM
